Assay results reported in patent US8778958B2, “Synthesis of metabolically stable agents for alcohol and drug abuse” (priority 2008, dated 2014).
Read-outs that look alike come from different tables or passages of the source.

Columns and labels:
[1] = molecular target: T1, μ-opioid receptor (Mus musculus, UniProt P42866); assay: biochemical; set-up: species or system human
T1 construct: FLAG; expressed in transfected cells

[2] = molecular target: T2, δ-opioid receptor (Mus musculus, UniProt P32300); assay: biochemical; set-up: species or system human
T2 construct: hemagglutinin (HA); expressed in transfected cells
T2 sequence (P32300 whole entry): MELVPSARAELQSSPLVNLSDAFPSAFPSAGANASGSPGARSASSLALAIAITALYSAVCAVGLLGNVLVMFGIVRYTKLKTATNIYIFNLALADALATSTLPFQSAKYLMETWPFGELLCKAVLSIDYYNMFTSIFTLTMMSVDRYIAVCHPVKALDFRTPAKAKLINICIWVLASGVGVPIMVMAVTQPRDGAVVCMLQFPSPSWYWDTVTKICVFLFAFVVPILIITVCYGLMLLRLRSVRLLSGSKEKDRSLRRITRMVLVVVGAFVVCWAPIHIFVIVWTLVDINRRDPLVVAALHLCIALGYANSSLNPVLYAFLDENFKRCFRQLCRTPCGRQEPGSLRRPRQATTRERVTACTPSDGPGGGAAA

[3] = molecular target: T3, κ-opioid receptor (Mus musculus, UniProt P33534); assay: biochemical; set-up: species or system human
T3 construct: FLAG; expressed in transfected cells
T3 sequence (P33534 whole entry): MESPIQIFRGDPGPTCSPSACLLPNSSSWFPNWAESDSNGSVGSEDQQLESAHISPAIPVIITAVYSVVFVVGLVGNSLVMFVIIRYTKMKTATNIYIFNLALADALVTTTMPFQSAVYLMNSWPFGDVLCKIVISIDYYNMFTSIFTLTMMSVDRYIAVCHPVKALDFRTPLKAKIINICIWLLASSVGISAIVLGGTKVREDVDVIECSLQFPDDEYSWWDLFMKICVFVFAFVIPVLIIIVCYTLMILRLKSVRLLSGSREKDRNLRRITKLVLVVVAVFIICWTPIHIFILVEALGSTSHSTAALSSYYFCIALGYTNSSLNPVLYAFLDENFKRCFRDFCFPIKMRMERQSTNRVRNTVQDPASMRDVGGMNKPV

[4] = molecular target: T1, μ-opioid receptor; assay: biochemical; format: biochemical, human; settings: for Emax: read-out: Emax, μ, inhibition of basal [35S]GTPγS binding
[5] = molecular target: T2, δ-opioid receptor; assay: biochemical; format: biochemical, human; settings: for Emax: read-out: Emax, δ, inhibition of basal [35S]GTPγS binding
[6] = tested on: T4, κ-opioid receptor; assay: biochemical; format: biochemical, human; settings: read-out: Emax, κ, inhibition of basal [35S]GTPγS binding
T4 construct: FLAG; expressed in transfected cells
T4 sequence (P33534 whole entry): as above

[7] = molecular target: T5, NOP (nociceptin) receptor (Homo sapiens, UniProt P41146)
T5 sequence (P41146 whole entry): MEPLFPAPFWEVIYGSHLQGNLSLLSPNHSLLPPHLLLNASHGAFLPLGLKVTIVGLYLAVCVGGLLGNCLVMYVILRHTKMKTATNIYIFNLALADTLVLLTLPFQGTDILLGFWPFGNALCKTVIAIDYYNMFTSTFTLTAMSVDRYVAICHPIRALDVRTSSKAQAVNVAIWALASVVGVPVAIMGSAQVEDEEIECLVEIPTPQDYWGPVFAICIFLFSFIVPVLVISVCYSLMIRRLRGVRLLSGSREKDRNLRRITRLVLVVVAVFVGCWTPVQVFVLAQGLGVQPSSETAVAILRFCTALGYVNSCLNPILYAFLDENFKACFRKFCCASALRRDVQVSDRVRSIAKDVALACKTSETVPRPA

[8] = molecular target: T5, NOP (nociceptin) receptor; assay: Inhibition of basal [35S]GTPγS binding (inverse agonism), NOP; format: biochemical; set-up: FLAG; expressed in transfected cells
[9] = Metabolic stability, human liver S-9; settings: human, s9, pH 7.4
Protocol: (§1) A typical assay mixture contained rat or mouse liver microsomes or human liver S-9 (0.4-0.5 mg of protein), 100 μM potassium phosphate buffer (pH 7.4), 40 μM test compound, an NADPH-generating system consisting of 0.5 mM NADP^+, 0.5 mM glucose-6-phosphate, 5 IU/mL glucose-6-phosphate dehydrogenase, 1 mg/mL DETAPAC and 7 mM MgCl2 for a final incubation volume of 0.1 mL^23. […] After centrifugation at 13,000 rpm for 5 min, the organic fraction was collected and the solvent was removed with a stream of argon. The residue was reconstituted in methanol (200 L), centrifuged at 13,000 rpm for 5 min and the supernatant was analyzed by high-performance liquid chromatography with an Axxi-chrom (straight-phase) silica column (4.6 mm×250 mm, 5 m) or with a Supelco (reverse-phase) HS F5 pentafluorophenyl column (4.6 mm×250 mm, 5 m) as described above.

[10] = Metabolic stability, mouse liver microsomes; settings: mouse, microsomes, pH 7.4
Protocol: as §1

[11] = Metabolism of compound 6 in human liver microsomes; settings: going from pH 7.4 to pH 10
Protocol: For analysis, 50 μg of 6,6-N-oxide and bromobenzoic acid was used as TLC standards and the UV-vis bands corresponding to these regions were scraped and placed in scintillation vials for counting and quantification. For the HPLC assay, the incubation was stopped by the addition of isopropanol/CH2Cl2 (3/1, v/v), mixed thoroughly and the organic layer was separated by centrifugation. […] The analytes were quantified on the basis of HPLC peak height.

[12] = molecular target: T3, κ-opioid receptor; assay: biochemical; format: biochemical, human
[13] = molecular target: T6, CYP2B6 (Homo sapiens, UniProt P20813); assay: CYP inhibition, CYP2B6 (Vivid Blue substrate); settings: 10 μM test compound; ND = no detectable inhibition
T6 sequence (P20813 1-491): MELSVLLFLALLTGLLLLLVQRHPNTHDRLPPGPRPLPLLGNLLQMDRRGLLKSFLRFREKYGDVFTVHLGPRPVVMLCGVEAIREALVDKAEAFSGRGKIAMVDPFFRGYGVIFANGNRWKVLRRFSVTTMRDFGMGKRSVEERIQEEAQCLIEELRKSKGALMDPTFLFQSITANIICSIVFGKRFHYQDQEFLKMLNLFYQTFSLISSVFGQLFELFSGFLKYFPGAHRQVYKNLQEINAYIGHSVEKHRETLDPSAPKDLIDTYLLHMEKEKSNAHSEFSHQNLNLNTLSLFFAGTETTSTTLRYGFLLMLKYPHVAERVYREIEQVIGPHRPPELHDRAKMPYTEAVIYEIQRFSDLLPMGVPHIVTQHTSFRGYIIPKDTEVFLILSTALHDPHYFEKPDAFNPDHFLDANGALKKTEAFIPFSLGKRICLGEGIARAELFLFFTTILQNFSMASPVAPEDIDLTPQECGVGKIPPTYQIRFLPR

[14] = molecular target: CYP2D6 (Homo sapiens, UniProt P10635); assay: CYP inhibition, CYP2D6 (Vivid Blue substrate); settings: 10 μM test compound; ND = no detectable inhibition
Chain of CYP2D6 (P10635 whole entry): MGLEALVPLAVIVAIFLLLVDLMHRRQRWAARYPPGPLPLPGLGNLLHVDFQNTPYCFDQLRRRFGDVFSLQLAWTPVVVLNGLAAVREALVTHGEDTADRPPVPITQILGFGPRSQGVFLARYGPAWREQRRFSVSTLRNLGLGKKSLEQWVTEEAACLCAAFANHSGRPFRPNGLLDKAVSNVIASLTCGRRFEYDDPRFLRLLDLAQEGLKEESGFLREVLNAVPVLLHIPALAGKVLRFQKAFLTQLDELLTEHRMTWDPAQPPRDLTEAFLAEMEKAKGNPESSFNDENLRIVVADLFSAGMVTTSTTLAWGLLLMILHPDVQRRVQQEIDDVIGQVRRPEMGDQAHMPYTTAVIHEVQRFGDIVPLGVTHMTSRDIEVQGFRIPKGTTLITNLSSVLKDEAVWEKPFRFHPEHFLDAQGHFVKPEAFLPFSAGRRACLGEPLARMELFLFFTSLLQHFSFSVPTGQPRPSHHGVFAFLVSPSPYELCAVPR

[15] = molecular target: CYP2C19 (Homo sapiens, UniProt P33261); assay: CYP inhibition, CYP2C19 (Vivid Blue substrate); settings: 10 μM test compound; ND = no detectable inhibition
Chain of CYP2C19 (P33261 whole entry): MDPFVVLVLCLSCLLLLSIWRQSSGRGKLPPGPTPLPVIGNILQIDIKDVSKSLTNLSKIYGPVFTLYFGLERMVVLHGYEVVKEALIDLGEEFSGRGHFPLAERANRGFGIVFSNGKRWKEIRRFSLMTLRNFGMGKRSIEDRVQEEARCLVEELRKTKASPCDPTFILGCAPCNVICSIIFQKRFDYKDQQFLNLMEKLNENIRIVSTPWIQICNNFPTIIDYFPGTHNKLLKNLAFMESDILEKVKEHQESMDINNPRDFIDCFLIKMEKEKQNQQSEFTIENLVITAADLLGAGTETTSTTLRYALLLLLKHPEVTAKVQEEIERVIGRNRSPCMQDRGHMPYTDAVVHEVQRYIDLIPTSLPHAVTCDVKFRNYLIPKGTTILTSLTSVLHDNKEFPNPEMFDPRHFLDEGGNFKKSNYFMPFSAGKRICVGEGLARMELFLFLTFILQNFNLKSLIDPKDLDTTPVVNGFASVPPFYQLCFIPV

[16] = molecular target: CYP2C9 (Homo sapiens, UniProt P11712); assay: CYP inhibition, CYP2C9 (diclofenac hydroxylase); settings: 10 μM test compound; ND = no detectable inhibition
Chain of CYP2C9 (P11712 whole entry): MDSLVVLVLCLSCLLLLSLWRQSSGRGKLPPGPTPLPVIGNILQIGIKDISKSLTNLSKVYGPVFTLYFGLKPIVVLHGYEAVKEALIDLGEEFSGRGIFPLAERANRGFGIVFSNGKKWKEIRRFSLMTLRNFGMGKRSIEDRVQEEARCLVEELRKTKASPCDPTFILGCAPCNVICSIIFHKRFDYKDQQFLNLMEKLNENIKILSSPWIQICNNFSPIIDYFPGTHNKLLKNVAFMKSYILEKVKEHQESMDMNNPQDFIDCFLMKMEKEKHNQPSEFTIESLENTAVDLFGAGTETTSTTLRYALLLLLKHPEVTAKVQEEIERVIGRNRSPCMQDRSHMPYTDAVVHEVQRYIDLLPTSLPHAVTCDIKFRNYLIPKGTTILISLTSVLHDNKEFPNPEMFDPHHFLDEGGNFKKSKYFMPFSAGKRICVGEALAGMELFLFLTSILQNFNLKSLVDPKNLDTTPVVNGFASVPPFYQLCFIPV

[17] = molecular target: CYP3A4 (Homo sapiens, UniProt P08684); assay: CYP inhibition, CYP3A4 (testosterone 6-hydroxylation); settings: 10 μM test compound; ND = no detectable inhibition
Chain of CYP3A4 (P08684 whole entry): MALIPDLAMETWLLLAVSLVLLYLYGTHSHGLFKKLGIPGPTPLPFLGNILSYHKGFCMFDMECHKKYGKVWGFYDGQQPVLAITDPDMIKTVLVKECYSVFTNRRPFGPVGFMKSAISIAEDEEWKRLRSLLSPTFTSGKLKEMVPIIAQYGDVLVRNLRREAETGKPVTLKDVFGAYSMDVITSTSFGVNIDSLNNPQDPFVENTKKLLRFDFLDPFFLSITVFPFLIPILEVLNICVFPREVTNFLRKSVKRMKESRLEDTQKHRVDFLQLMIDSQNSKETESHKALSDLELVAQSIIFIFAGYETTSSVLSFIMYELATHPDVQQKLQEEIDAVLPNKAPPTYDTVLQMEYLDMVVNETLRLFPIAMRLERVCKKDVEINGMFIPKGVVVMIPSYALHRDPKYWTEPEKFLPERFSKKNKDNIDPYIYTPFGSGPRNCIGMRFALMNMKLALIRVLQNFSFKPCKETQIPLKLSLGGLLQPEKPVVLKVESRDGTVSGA

[18] = molecular target: T5, NOP (nociceptin) receptor; assay: Stimulation of [35S]GTPγS binding (agonist activity), NOP; settings: read-out: EC50, NOP, stimulation of [35S]GTPγS binding; cells printed in μM
[19] = read-out: Emax, μ, stimulation of [35S]GTPγS binding
[20] = read-out: Emax, δ, stimulation of [35S]GTPγS binding
[21] = percentage of basal [35S]GTPγS binding stimulation

T1 sequence (P42866 whole entry): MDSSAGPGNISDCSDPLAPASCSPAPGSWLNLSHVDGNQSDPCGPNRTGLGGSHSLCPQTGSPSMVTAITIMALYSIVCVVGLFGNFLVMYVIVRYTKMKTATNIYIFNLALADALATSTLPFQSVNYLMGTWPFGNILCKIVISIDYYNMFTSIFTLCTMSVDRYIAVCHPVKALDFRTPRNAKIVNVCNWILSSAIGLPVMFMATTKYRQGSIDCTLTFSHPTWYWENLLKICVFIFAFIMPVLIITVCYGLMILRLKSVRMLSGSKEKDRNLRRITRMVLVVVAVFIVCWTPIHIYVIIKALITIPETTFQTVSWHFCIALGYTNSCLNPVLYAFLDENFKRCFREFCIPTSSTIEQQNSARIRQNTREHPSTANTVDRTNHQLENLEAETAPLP

O=C(N[C@@H]1CC[C@@]2(O)[C@H]3Cc4ccc(O)c5c4[C@@]2(CCN3CC2CC2)[C@H]1O5)c1ccc(Br)cc1 [Compound 6, 6-β-(4′-Bromo)benzamido-14-hydroxy-17-(cyclopropylmethyl) nordesmorphine]
Emax, μ, stimulation of [35S]GTPγS binding [1]: 38 ± 4.3%
Emax [1, 19]: 28 to 63%
Emax, δ, stimulation of [35S]GTPγS binding [2]: 46 ± 3.7%
Emax [2, 20]: 28 to 63%
Emax, κ, stimulation of [35S]GTPγS binding [3]: 42 ± 3.9%
Emax ([3]; read-out: Emax, κ, stimulation of [35S]GTPγS binding): 28 to 63%
Emax [4]: 0%
Emax [5]: 35 ± 4.8%
Emax [6]: 0%
Emax [7]: 0%
EC50 [8]: 94 ± 33 nM
Emax ([8]; read-out: Emax, NOP, inhibition of basal [35S]GTPγS binding): 92 ± 7.4%
half-life at 40 μM [9]: > 1.87 h
half-life at 40 μM [10]: > 1.87 h
Rate of N-oxide formation, dependence on pH [11]: the rate doubled

O=C(N[C@@H]1CC[C@@]2(O)[C@H]3Cc4ccc(O)c5c4[C@@]2(CCN3CC2CC2)[C@H]1O5)c1ccc(Cl)cc1 [Compound 10, 6-β-(4′-Chloro)benzamido-14-hydroxy-17-(cyclopropylmethyl)nordesmorphine]
Emax [1, 19]: 46 ± 3.8%
Emax ([1]; read-out: Emax, μ, stimulation of [35S]GTPγS binding, percentage of basal [35S]GTPγS binding stimulation): 28 to 63%
Emax [2, 20]: 22 ± 1.7%
Emax ([2]; read-out: Emax, δ, stimulation of [35S]GTPγS binding, percentage of basal [35S]GTPγS binding stimulation): 28 to 63%
Emax ([3]; read-out: Emax, κ, stimulation of [35S]GTPγS binding, percentage of basal [35S]GTPγS binding stimulation): 28 to 63%
Emax [4]: 0%
Emax [5]: 0%
Emax [6]: 0%
melting point: 188.8 °C
EC50 [8]: 88 ± 19 nM

O=C(N[C@@H]1CC[C@@]2(O)[C@H]3Cc4ccc(O)c5c4[C@@]2(CCN3CC2CC2)[C@H]1O5)c1ccc(Cl)c(Cl)c1 [Compound 9, 6-β-(3′,4′-Dichloro)benzamido-14-hydroxy-17-(cyclopropylmethyl)nordesmorphine]
Emax, μ, stimulation of [35S]GTPγS binding [1, 21]: 85 ± 7.4%
Emax, δ, stimulation of [35S]GTPγS binding [2, 21]: 85 ± 35%
Emax, κ, stimulation of [35S]GTPγS binding [3, 21]: 80 ± 7.4%
Emax, μ, inhibition of basal [35S]GTPγS binding [4]: 0%
Emax, δ, inhibition of basal [35S]GTPγS binding [5]: 0%
Emax, κ, inhibition of basal [35S]GTPγS binding [12]: 0%
Emax [7]: 0%
EC50 [8]: 0.1 nM
Emax, NOP, inhibition of basal [35S]GTPγS binding [8]: 87 ± 6.9%
Percent Inhibition CYP2B6 [13]: 5%
Percent Inhibition CYP2D6 [14]: 10%
Percent Inhibition CYP2C19 [15]: 39%
Percent Inhibition CYP2C9 [16]: 7%
Percent Inhibition CYP3A4 [17]: 11%
EC50 [18]: > 10 µM
